Data published in paper PMC7029851, “Antibacterial activity of novel dual bacterial DNA type II topoisomerase inhibitors” (PLoS ONE, 2020).
Read-outs that look alike come from different tables or passages of the source.

Legend:
C. difficile ATCC 700057 = experiment: MIC, broth microdilution; format: cell-based, Clostridium difficile; settings: Clostridioides difficile, ATCC700057
Method: MICs were determined by the broth microdilution method (the agar dilution method was used only for N. gonorrhoeae) according to CLSI guidelines. […] The MIC values of antibiotics used in clinical practice were interpreted according to the susceptibility interpretive criteria reported in the appropriate CLSI Tables (M100-S25, CLSI, 2015).

S. aureus ATCC 29213 [1] = experiment: Minimal bactericidal concentration; format: cell-based, Staphylococcus aureus
Method: (§1) Minimal bactericidal concentrations (MBCs) were determined according to the procedure described by Knapp. Viable counts were performed after plates were incubated at 37°C for 24 hours. The MBC was defined as the lowest concentration that reduced the viability of the initial bacterial inoculum by ≥99.9%.

S. aureus BAA-1720 = experiment: Minimal bactericidal concentration; format: cell-based, Staphylococcus aureus
Method: as §1

E. coli ATCC 25922 [2] = experiment: Time-kill assay; format: cell-based, Escherichia coli; settings: 1× to 4× MIC, over 24 hours
Method: (§2) Time-kill experiments were performed according to the procedure reported by Knapp. […] A drug-free control was included in each experiment. The bacterial cultures were standardized to obtain an initial inoculum that ranged from 5×10^5 to 5×10^6 CFU/ml. The cultures were incubated at 37°C in a shaking bath. At 0, 2, 4, 8 and 24-hour intervals, viable counts were performed by spotting (in triplicate) 10 μl aliquots of suitable dilutions of the cultures onto Mueller-Hinton agar (MHA, Oxoid, Basingstoke, UK) plates. After incubation at 37°C for 24 hours, the bactericidal activity, namely, the ability to reduce the initial inoculum by 3 log10 CFU/ml, was assessed for each tested concentration over time.

[3] = tested on: C. difficile clinical isolates (n = 21); experiment: MIC, multidrug-resistant clinical isolates; format: cell-based, Clostridium difficile; settings: Clostridioides difficile, C. difficile clinical isolates (n = 21)
Method: (§3) The bacterial reference strains used in this study were purchased from ATCC (American Type Culture Collection) via LGC Standards (Middlesex, UK). […] Clinical MDR isolates were provided by Aptuit, the IHMA Europa Sàrl repository (Epalinges, Switzerland) and the Statens Serum Institute (Copenhagen, Denmark).
(§4) MICs were determined by the broth microdilution method (the agar dilution method was used only for N. gonorrhoeae) according to CLSI guidelines.
(§5) The results obtained using clinical isolates are reported as MIC50 and MIC90 values.

[4] = tested on: E. coli clinical isolates (n = 36); experiment: MIC, multidrug-resistant clinical isolates; format: cell-based, Escherichia coli; settings: Escherichia coli, E. coli MDR clinical isolates (n = 36)
Method: as §3, §4, §5

S. aureus ATCC BAA-1720 = experiment: Time-kill assay; format: cell-based, Staphylococcus aureus; settings: 1× to 4× MIC, over 24 hours
Method: as §2

S. aureus ATCC 29213 [5] = experiment: Time-kill assay; format: cell-based, Staphylococcus aureus; settings: 1× to 4× MIC (compound 1 also 8× and 16× MIC), over 24 hours
Method: as §2

[6] = tested on: H. influenzae AcrA- mutant; experiment: microbe, parasite or virus in culture; format: cell-based; settings: Haemophilus influenzae
Outline: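 MICs against efflux-deficient mutant strains were determined by broth microdilution following CLSI guidelines.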

S. pyogenes APV00074 = experiment: MIC, broth microdilution; format: cell-based; settings: Streptococcus pyogenes; S. pyogenes APV00074, ciprofloxacin-susceptible
Method: as §4

E. coli 4SI = experiment: MIC, broth microdilution; format: cell-based; settings: Escherichia coli, ciprofloxacin-resistant
Method: as §4

A. baumannii ATCC 19606 = experiment: MIC, broth microdilution; format: cell-based; settings: Acinetobacter baumannii, ATCC19606; A. baumannii ATCC 19606, ciprofloxacin-susceptible
Method: as §4

S. pyogenes APV00083 = experiment: MIC, broth microdilution; format: cell-based; settings: Streptococcus pyogenes; S. pyogenes APV00083, ciprofloxacin-susceptible
Method: as §4

A. baumannii APV00473 = experiment: MIC, broth microdilution; format: cell-based; settings: Acinetobacter baumannii; A. baumannii APV00473, ciprofloxacin-resistant
Method: as §4

S. aureus ATCC 29213 [7] = experiment: Post-antibiotic effect (PAE); format: cell-based, Staphylococcus aureus; settings: 1-hour exposure, range over 1×, 4× and 16× MIC
Method: (§6) A drug-free control was included in each experiment. After being exposed to the drug for 1 hour, viable counts were conducted in triplicate by spotting aliquots (10 μl) of suitable dilutions onto MHA plates. The drugs were removed by diluting the bacterial cultures (1:1000) in Cation-Adjusted Mueller-Hinton Broth (CAMHB; Sigma-Aldrich). The diluted cultures were incubated in a shaking bath at 37°C. To monitor the ongoing suppression of bacterial growth over time (5 hours), aliquots from each broth culture were periodically collected, diluted and plated to perform subsequent viable counts (in triplicate).

[8] = tested on: S. aureus clinical isolates (n = 10); experiment: microbe, parasite or virus in culture; format: cell-based, Staphylococcus aureus
Method: as §3, §4, §5

E. coli ATCC 25922 [9] = experiment: Post-antibiotic effect (PAE); format: cell-based, Escherichia coli; settings: 1× and 4× MIC
Method: as §6

[10] = tested on: A. baumannii clinical isolates (n = 10); experiment: microbe, parasite or virus in culture; format: cell-based, Acinetobacter baumannii
Method: as §3, §4, §5

S. aureus ATCC 29213 [11] = format: cell-based, Staphylococcus aureus; settings: S. aureus ATCC 29213, 2×MIC
hERG channel = target: T1, hERG channel (Homo sapiens, UniProt Q12809); experiment: hERG automated patch clamp assay; format: cell-based; settings: CHO-K1, read-out: IC50 against hERG channels
T1 construct: expressed in transfected cells; host or cells: CHO-K1
T1 sequence (Q12809 whole entry): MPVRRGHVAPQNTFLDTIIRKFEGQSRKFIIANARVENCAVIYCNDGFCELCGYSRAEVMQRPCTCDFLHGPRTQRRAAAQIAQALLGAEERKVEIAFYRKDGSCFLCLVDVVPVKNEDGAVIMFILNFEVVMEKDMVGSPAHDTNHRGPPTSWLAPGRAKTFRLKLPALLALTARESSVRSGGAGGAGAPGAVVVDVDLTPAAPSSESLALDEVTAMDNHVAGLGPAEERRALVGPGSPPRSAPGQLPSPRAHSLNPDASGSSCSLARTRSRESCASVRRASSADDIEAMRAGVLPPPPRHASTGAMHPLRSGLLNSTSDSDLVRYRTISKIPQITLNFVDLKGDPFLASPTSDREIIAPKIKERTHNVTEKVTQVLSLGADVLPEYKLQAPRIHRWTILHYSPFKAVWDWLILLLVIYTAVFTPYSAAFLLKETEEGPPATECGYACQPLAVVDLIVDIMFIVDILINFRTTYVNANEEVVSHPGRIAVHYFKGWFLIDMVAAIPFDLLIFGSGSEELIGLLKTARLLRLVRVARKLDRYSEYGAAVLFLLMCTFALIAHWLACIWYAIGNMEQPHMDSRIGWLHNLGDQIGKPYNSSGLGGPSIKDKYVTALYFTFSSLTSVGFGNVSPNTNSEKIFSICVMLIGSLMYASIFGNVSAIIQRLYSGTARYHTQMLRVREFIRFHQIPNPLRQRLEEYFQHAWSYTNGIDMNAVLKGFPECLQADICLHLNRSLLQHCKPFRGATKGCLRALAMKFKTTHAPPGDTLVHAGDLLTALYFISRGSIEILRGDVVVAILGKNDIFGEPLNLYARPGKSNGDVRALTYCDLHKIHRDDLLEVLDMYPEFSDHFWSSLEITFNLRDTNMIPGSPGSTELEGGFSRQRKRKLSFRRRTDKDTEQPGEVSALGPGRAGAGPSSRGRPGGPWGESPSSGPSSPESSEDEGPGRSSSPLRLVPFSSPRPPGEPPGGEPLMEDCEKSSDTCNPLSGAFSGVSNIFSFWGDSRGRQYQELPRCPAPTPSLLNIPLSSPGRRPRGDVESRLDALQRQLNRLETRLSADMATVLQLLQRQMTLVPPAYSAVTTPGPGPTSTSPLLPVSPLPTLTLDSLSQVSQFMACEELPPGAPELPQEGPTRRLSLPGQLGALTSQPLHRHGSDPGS
Text: hERG automated patch clamp assay. The human recombinant ERG CHO-K1 cell line was used in an automated patch clamp assay (qPatch system) to evaluate the hERG channel blockade potential of compounds 1 and 2 [36]. Concentration (log) response curves were fitted to a logistic equation to generate estimates of the 50% inhibitory value.

[12] = tested on: S. aureus ATCC 29213 and S. aureus BAA-1720; experiment: MIC in the presence of 20% human serum
[13] = S. aureus MDR clinical isolates (n = 10)

Cl.N#Cc1ccc2ccc(=O)n([C@H]3CC[C@H](NCc4cc5c(=O)oc6ccc(F)cc6c5[nH]4)CC3)c2c1 [Compound 2, 1-(trans-4-{[(8-fluoro-4-oxo-1,4-dihydro[1]benzopyrano[4,3-b]pyrrol-2-yl)methyl]amino}cyclohexyl)-2-oxo-1,2-dihydroquinoline-7-carbonitrile hydrochloride]
MIC (C. difficile ATCC 700057): 0.25 µg/mL | MBC/MIC (S. aureus ATCC 29213 [1]): 16 | MBC (S. aureus ATCC 29213 [1]; Staphylococcus aureus, ATCC29213, ≥99.9% reduction of inoculum): 0.5 µg/mL | MBC/MIC (S. aureus ATCC 29213 [1]; listed as compound 2): ≥ 16 | MBC/MIC (S. aureus BAA-1720): 125 | MBC (S. aureus BAA-1720; Staphylococcus aureus, BAA1720, ≥99.9% reduction of inoculum): 2 µg/mL | MBC/MIC (S. aureus BAA-1720; listed as compound 2): ≥ 16 | Bactericidal activity in time-kill (reduction of 3 log10 CFU/ml) (E. coli ATCC 25922 [2]): no bactericidal activity | MIC50 ([3]; read-out: MIC50): 0.12 µg/mL | MIC90 ([3]; read-out: MIC90): 0.25 µg/mL | MIC ([3]; read-out: MIC range): 0.06 to 0.25 µg/mL | MIC [4]: 0.5 to 4 µg/mL | MIC50 ([4]; read-out: MIC50): 1 µg/mL | MIC90 ([4]; read-out: MIC90): 2 µg/mL | Bactericidal activity in time-kill (reduction of 3 log10 CFU/ml) (S. aureus ATCC BAA-1720): no bactericidal activity | Bactericidal activity in time-kill (reduction of 3 log10 CFU/ml) (S. aureus ATCC 29213 [5]): no bactericidal activity | MIC [6]: ≤ 0.016 µg/mL | MIC (S. pyogenes APV00074): ≤ 0.06 µg/mL | MIC (E. coli 4SI): 0.5 µg/mL | MIC (A. baumannii ATCC 19606): 0.12 µg/mL | MIC (S. pyogenes APV00083): ≤ 0.06 µg/mL | MIC (A. baumannii APV00473): 0.5 µg/mL | PAE (S. aureus ATCC 29213 [7]): 73 to 78 min | MIC50 [8, 13]: ≤ 0.06 µg/mL | MIC90 [8, 13]: ≤ 0.06 µg/mL | MIC range [8, 13]: ≤0.06 µg/mL | MIC ([8]; Staphylococcus aureus, MRSA, S. aureus APV0063, MRSA): ≤ 0.06 µg/mL | MIC ([8]; Staphylococcus aureus, MRSA, S. aureus APV0064, MRSA): ≤ 0.06 µg/mL | MIC ([8]; Staphylococcus aureus, MRSA, S. aureus APV0065, MRSA): ≤ 0.06 µg/mL | MIC ([8]; Staphylococcus aureus, S. aureus APV00045, M (macrolide resistance)): ≤ 0.06 µg/mL | MIC ([8]; Staphylococcus aureus, S. aureus APV0048, MLSi): ≤ 0.06 µg/mL | MIC ([8]; Staphylococcus aureus, S. aureus APV0049, MLSi): ≤ 0.06 µg/mL | MIC ([8]; Staphylococcus aureus, S. aureus APV0052, MLSc): ≤ 0.06 µg/mL | MIC ([8]; Staphylococcus aureus, S. aureus APV0053, MLSc): ≤ 0.06 µg/mL | MIC ([8]; Staphylococcus aureus, S. aureus APV00280, M (macrolide resistance)): ≤ 0.06 µg/mL | MIC ([8]; Staphylococcus aureus, S. aureus APV00281, M (macrolide resistance)): ≤ 0.06 µg/mL | MIC50 ([8]; Staphylococcus aureus, S. aureus MDR clinical isolates (n = 10), read-out: MIC50): ≤ 0.06 µg/mL | MIC90 ([8]; Staphylococcus aureus, S. aureus MDR clinical isolates (n = 10), read-out: MIC90): ≤ 0.06 µg/mL | PAE compared with ciprofloxacin (E. coli ATCC 25922 [9]): approximately two-fold greater | MIC range [10]: ≤0.06 to 0.12 µg/mL | MIC50 ([10]; Acinetobacter baumannii): ≤ 0.06 µg/mL | MIC90 ([10]; Acinetobacter baumannii): 0.12 µg/mL | In vitro frequency of resistant mutants (S. aureus ATCC 29213 [11]): 6.7×10^−7 | IC50 (hERG channel): > 100 µM | Change of MIC in the presence of 20% human serum [12]: not modified
